Measured values published in EPA's ToxValDB 9.5.
Converted amounts (≈) assume the structure as drawn. “And” between values parts separate entries of the source, which are not always exact repeats. Identical values can stand only once.

Legend:
Oryctolagus sp. = details: for LD50: acute
Rattus norvegicus [1] = details: for LC50 / LD50: acute
Rattus norvegicus [2] = details: subchronic; oral; gavage; M; Sprague-Dawley; Food Consumption: increase + Urinalysis: Ketone body decrease + Blood Chemistry: T-Cho increase, PL increase, TP increase + Absolute Organ …
Rattus norvegicus [3] = details: subchronic; duration: 90 days; oral; gavage; M; Sprague-Dawley; Increased hepatocellular hypertrophy (Liver), Decreased total T4 (Thyroid)
Mus musculus = details: oral
Rattus norvegicus [4] = details: oral, Sprague-Dawley
[5] = subchronic, duration: 30 days, oral, diet, Sprague-Dawley
[6] = short-term, duration: 28 days, M, Endocrine: Hyperplasia/hypertrophy of follicular epithelium of the thyroid
[7] = short-term, duration: 28 days, M, Neurological: Delayed pupillary reflex

In the case of C=C(C#N)C(=O)OCC [Ethyl cyanoacrylate], the LD50 (Oryctolagus sp.; dermal, occlusive, New Zealand) is reported as greater than 2000 mg/kg, the LC50 (Rattus norvegicus [1]; inhalation, Wistar) is reported as less than 21.1 µg/mL and the LD50 (Rattus norvegicus [1]; oral, gavage) is reported as greater than 5000 mg/kg.

With CC(C)OC(C)C [Isopropyl ether] the LD50 (Oryctolagus sp.; dermal, non-occlusive, New Zealand) was greater than 2000 mg/kg, the LD50 (Oryctolagus sp.; oral, New Zealand) was 4500 mg/kg and the NOAEL (Rattus norvegicus [1]; reproduction developmental, duration: 13 weeks, inhalation, Sprague-Dawley) was 2010 mg/m3. For the same molecule, the NOAEL (Rattus norvegicus [1]; reproduction developmental, duration: 10 days, inhalation, F, Sprague-Dawley) was 1800 mg/m3 and the NOEL (Rattus norvegicus [2]) was less than 100 mg/kg-day.

CN(C)CCN(C)C [N,N,N',N'-Tetramethylethylenediamine] gave an LD50 (Oryctolagus sp.; dermal, New Zealand) of 1230 mg/kg, an LC50 (Rattus norvegicus [1]; inhalation) greater than 5610 mg/m3 and an LC50 (Rattus norvegicus [1]; inhalation, Sprague-Dawley) greater than 5610 mg/m3. The LC50 (Rattus norvegicus [1]; inhalation, Wistar) was 6260 mg/m3.

With CCNc1cccc(C)c1 [N-Ethyl-3-methylaniline] the LD50 (Oryctolagus sp.; dermal, New Zealand) was greater than 2000 mg/kg, the LC50 (Rattus norvegicus [1]; inhalation) was 2.4 µg/mL (≈ 17.8 µM) and the LD50 (Rattus norvegicus [1]; oral, Sprague-Dawley) was 787 mg/kg and 478 mg/kg. The LD50 (Rattus norvegicus [1]; oral, gavage, Wistar) was 650 mg/kg and the NOAEL (Rattus norvegicus [1]; short-term, duration: 2 weeks, inhalation, Sprague-Dawley) was 31 mg/m3.

In the case of CN1C(=O)c2ccccc2C1=O [N-Methylphthalimide], the LD50 (Oryctolagus sp.; dermal, occlusive, New Zealand) is reported as greater than 2000 mg/kg, the NOAEL (Oryctolagus sp.; developmental, duration: 6 days, oral, gavage, New Zealand) is reported as greater than 500 mg/kg-day and the LD50 (Rattus norvegicus [1]; oral, Spartan) is reported as greater than 500 mg/kg. For the same molecule, the LD50 (Rattus norvegicus [1]; oral, gavage, Spartan) was greater than 500 mg/kg, the NOAEL (Rattus norvegicus [1]; reproduction developmental, duration: 4 weeks, oral, gavage, F, Sprague-Dawley) was 150 mg/kg-day and the NOAEL (Rattus norvegicus [1]; reproduction developmental, duration: 4 weeks, oral, gavage, M, Sprague-Dawley) was no less than 600 mg/kg-day. It also gave an NOAEL (Rattus norvegicus [1]; reproduction developmental, duration: 4 weeks, oral, gavage, Sprague-Dawley, generation: F0) of 150 mg/kg-day, an NOAEL (Rattus norvegicus [1]; reproduction developmental, duration: 4 weeks, oral, gavage, Sprague-Dawley, generation: F1) of less than 50 mg/kg-day and an NOAEL (Rattus norvegicus [1]; reproduction developmental, oral, gavage, F) of 150 mg/kg-day. For the same molecule, the NOAEL (Rattus norvegicus [1]; reproduction developmental, oral, gavage, generation: F0) was 150 mg/kg-day, the NOAEL (Rattus norvegicus [1]; reproduction developmental, oral, gavage, generation: F1) was 50 mg/kg-day and the “LOAEL (% diet)” value (Rattus norvegicus [1]; [5]) was 0.5. The “NOAEL (% diet)” value (Rattus norvegicus [1]; [5]) was 0.25.

In the case of O=C(O)C(F)(F)C(F)(F)C(F)(F)F [Perfluorobutanoic acid], the NOAEL (Rattus norvegicus [3]) is reported as 6 mg/kg-day, the LOAEL (Mus musculus; developmental, duration: 18 days, gavage, CD1, Developmental: Eye opening delayed approximately 1 day) is reported as 35 mg/kg-day and the NOAEL (Mus musculus; reproduction developmental, duration: 18 days, gavage, CD1, Hepatic: Significant increase in absolute and relative liver weight at ?[…]) is reported as 350 mg/kg-day. For the same molecule, the NOAEL (Mus musculus; short-term, duration: 10 days, diet, M, Hepatic: 63% increase in absolute liver weight) was 78 mg/kg-day, the NOAEL (Rattus norvegicus [4]; short-term, duration: 5 days, gavage, M/F, Immunotoxicological: No histological alterations + Neurological: No histological alterations + Reproductive: No histological alterations) was 184 mg/kg-day and the NOAEL (Rattus norvegicus [4]; short-term, duration: 14 days, diet, M, Hepatic: Biochemical and ultrastructural evidence of peroxisome proliferation) was 20 mg/kg-day. The NOAEL (Rattus norvegicus [4]; short-term, duration: 28 days, M/F, Hepatic: Increased absolute and relative liver weight and decreased serum cholesterol in males at ?30 mg/kg/day / hepatocellular …) was 150 mg/kg-day, the LOAEL (Rattus norvegicus [4]; [6]) was 30 mg/kg-day and the NOAEL (Rattus norvegicus [4]; [6]) was 6 mg/kg-day. It also gave an LOAEL (Rattus norvegicus [4]; [7]) of 150 mg/kg-day, an NOAEL (Rattus norvegicus [4]; [7]) of 30 mg/kg-day and an NOAEL (Rattus norvegicus [4]; subchronic, duration: 90 days, M/F, Hematological: Reduced erythrocyte counts (3.8%), hemoglobin (5.7%), and hematocrit (4.5%)) of 6 mg/kg-day. The NOAEL (Rattus norvegicus [4]; subchronic, duration: 90 days, M/F, Hepatic: Diffuse panlobular hepatocyte hypertrophy at 30 mg/kg/day in males + Immunotoxicological: No histological alterations + …) was 30 mg/kg-day, the NOAEL (Rattus norvegicus [4]; subchronic, duration: 90 days, M, Endocrine: Hypertrophy/hyperplasia of follicular epithelium of the thyroid gland) was 6 mg/kg-day and the LOAEL (Rattus norvegicus [4]; subchronic, duration: 90 days, M, Endocrine: Hypertrophy/hyperplasia of follicular epithelium of the thyroid gland + Hematological: Reduced erythrocyte counts (3.8%), …) was 30 mg/kg-day.

CC1COC(=O)O1 (stereo not given) [Propylene carbonate] showed an LD50 (Oryctolagus sp.; dermal, occlusive, New Zealand) greater than 3000 mg/kg, an LD50 (Rattus norvegicus [1]; oral, Sprague-Dawley) greater than 5000 mg/kg and an NOAEL (Rattus norvegicus [1]; developmental, duration: 6 days, oral, gavage, Sprague-Dawley) of 5000 mg/kg-day. The NOAEL (Rattus norvegicus [1]; reproduction developmental, duration: 13 weeks, oral, gavage, Sprague-Dawley, generation: F0) was 5000 mg/kg-day, the NOAEL (Rattus norvegicus [1]; reproduction developmental, duration: 13 weeks, oral, gavage, Sprague-Dawley, generation: F1) was 5000 mg/kg-day and the NOAEL (Rattus norvegicus [1]; reproduction developmental, duration: 13 weeks, oral, gavage, Sprague-Dawley, generation: F2) was 5000 mg/kg-day. The NOAEL (Rattus norvegicus [1]; reproduction developmental, duration: 93 days, inhalation, generation: F0) was 1000 mg/m3, the NOAEL (Rattus norvegicus [1]; reproduction developmental, duration: 93 days, inhalation, generation: F1) was 1000 mg/m3 and the NOAEL (Rattus norvegicus [1]; reproduction developmental, duration: 93 days, inhalation, generation: F2) was 1000 mg/m3. The NOAEL (Rattus norvegicus [1]; subchronic, duration: 90 days, oral, gavage, Sprague-Dawley) was 5000 mg/kg-day.

With c1ccc(OP(Oc2ccccc2)Oc2ccccc2)cc1 [Triphenyl phosphite] the LD50 (Oryctolagus sp.; dermal, New Zealand) was ≥ 2000 mg/kg and ≤ 5000 mg/kg, the LC50 (Rattus norvegicus [1]; Inhalation, Sherman Wistar) was greater than 6.7 µg/mL and the LD50 (Rattus norvegicus [1]; oral, gavage, Sherman Wistar) was 1590 mg/kg. The NOAEL (Rattus norvegicus [1]; reproduction developmental, duration: 16 weeks, oral, gavage, Sprague-Dawley, generation: F0) was 15 mg/kg-day and the NOAEL (Rattus norvegicus [1]; reproduction developmental, duration: 16 weeks, oral, gavage, Sprague-Dawley, generation: F1) was 15 mg/kg-day.

CCCCC(CC)C(=O)[O-].CCCCC(CC)C(=O)[O-].[Zn+2] (stereo not given) [Zinc 2-ethylhexoate] was tested, and the LD50 (Oryctolagus sp.; dermal, occlusive) was greater than 5000 mg/kg, the LC50 (Rattus norvegicus [1]; Inhalation) was greater than 23.2 µg/mL and the LD50 (Rattus norvegicus [1]; oral) was ≥ 3550 mg/kg and ≤ 3700 mg/kg. For the same molecule, the LD50 (Rattus norvegicus [1]; oral, gavage) was ≥ 3550 mg/kg and ≤ 3700 mg/kg and the NOAEL (Rattus norvegicus [1]; short-term, duration: 7 days, oral, gavage, Sprague-Dawley) was 1000 mg/kg-day.

In the case of O=C([O-])c1ccc2ccccc2c1.O=C([O-])c1ccc2ccccc2c1.[Zn+2] [Zinc naphthenate], the LOAEL (Oryctolagus sp.; subchronic, duration: 90 days, dermal, semiocclusive, New Zealand) is reported as 1000 mg/kg-day, the LD50 (Rattus norvegicus [1]; oral, gavage) is reported as greater than 6000 mg/kg and the LD50 (Rattus norvegicus [1]; oral, gavage, Sprague-Dawley) is reported as greater than 5000 mg/kg. For the same molecule, the LOAEL (Rattus norvegicus [1]; developmental, duration: 10 days, oral, gavage, Sprague-Dawley) was 938 mg/kg-day and the LOAEL (Rattus norvegicus [1]; reproduction developmental, duration: 10 days, oral, gavage, F, Sprague-Dawley) was 500 mg/kg-day and 938 mg/kg-day.
